Data published in patent US20250011300A1, “PIPERAZINYLSULFONYLARYL COMPOUNDS FOR TREATMENT OF BACTERIAL INFECTIONS” (Hoffmann-La Roche Inc., priority 2021, published 2025).
Converted amounts (≈) assume the structure as drawn.

What was measured:
E. coli (ATCC 25922) = assay: Minimal Inhibitory Concentration (MIC) assay, E. coli; type: cell-based; details: Escherichia coli, ATCC25922; E. coli ATCC 25922, CAMHB, 20 hours at 35° C.; read-out: MIC E. coli ATCC 25922
Method: (§1) Example 122: Minimal Inhibitory Concentration Protocol (MIC) Assay
(§2) The in vitro potency of compounds to inhibit E. coli (ATCC 25922) and K. pneumonia (ATCC 43816) growth was assessed by MIC (Minimal Inhibitory Concentration) assay. Samples were prepared from 10 mM DMSO stock solutions. After serial 2-fold dilution in DMSO in a master plate (Greiner, Cat No: 651201), 180 μL sterile distilled water was added to 20 μL each aliquot of the samples. Then 10 μL diluted compounds were transferred into a new assay plate (Costar, 3599).
(§3) The growth medium Cation-Adjusted Mueller Hinton Broth (CAMHB) was prepared by adding the 20 mg per liter CaCl2) and 20 mg per liter MgCl2 into the MHB medium (Jianglai Company, sterilized).
(§4) Vials of each of the test microorganisms were maintained frozen in the vapor phase of a liquid nitrogen freezer. The bacteria E. coli ATCC 25922 (KWIKSTIK, 0335K) and K. pneumonia ATCC 43816 were taken out from liquid nitrogen freezer, then thawed in room temperature, and diluted in the CAMHB medium to achieve a final inoculum of 5×10^5 CFU/mL. 90 μL CAMHB with bacteria was dispensed to the assay plate and pipetted 5 times.
(§5) Then the assay plates were incubated for 20 hours at 35° C. in ambient air. Following incubation, the MIC (μg/mL), the lowest concentration of drug that inhibits visible growth of the microorganism was read and recorded throw the microscope.

[1] = test system: K. pneumonia (ATCC 43816); assay: Minimal Inhibitory Concentration (MIC) assay, K. pneumonia; type: cell-based; details: Klebsiella pneumoniae; K. pneumoniae ATCC43816, CAMHB, 20 hours at 35° C.; read-out: MIC K. pneumoniae ATCC43816
Method: as §1, §2, §3, §4, §5

[2] = target: Escherichia coli LpxH (UDP-2,3-diacylglucosamine hydrolase) (Escherichia coli (strain K12), UniProt P43341); assay: 50% Inhibitory Concentration (IC50) to LpxH, UMP/CMP-Glo Glycosyltransferase Assay kit; type: biochemical
Method: Example 121: 50% Inhibitory Concentration (IC50) to UDP-2,3-diacylglucosamine hydrolase (LpxH)
The inhibitory potency of molecules to UDP-2,3-diacylglucosamine hydrolase (LpxH) was determined using the UMP/CMP-Glo™ Glycosyltransferase Assay kit. LpxH hydrolyzes the pyrophosphate bond of UDP-2,3-diacylglucosamine (UDP-DAG) to yield 2,3-diacylglucosamine 1-phosphate (lipid X) and UMP. The assay kit could quantify the UMP production by convert the UMP to ATP and generate light in a luciferase reaction. The compound's effect on the LpxH activity is detected by measuring the light using a luminometer (Envision).

Escherichia coli LpxH (UDP-2,3-diacylglucosamine hydrolase), sequence (P43341 whole entry): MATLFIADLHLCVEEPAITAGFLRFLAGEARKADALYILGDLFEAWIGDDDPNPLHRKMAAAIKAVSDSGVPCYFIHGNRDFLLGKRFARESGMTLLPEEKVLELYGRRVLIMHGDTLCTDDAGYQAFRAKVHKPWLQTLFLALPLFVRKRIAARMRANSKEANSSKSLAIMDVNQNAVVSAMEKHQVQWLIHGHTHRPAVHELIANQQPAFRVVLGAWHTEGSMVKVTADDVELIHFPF

Row | SMILES | MIC (E. coli (ATCC 25922)) [µg/mL] | MIC [1] [µg/mL] | IC50 [2] [nM]
1 | N[C@@H]1CC(=O)N(c2ccc(S(=O)(=O)N3CCN(c4cc(C(F)(F)[C@@H]5CCCNC5)cc(Cl)n4)CC3)cc2)C1 [Example 107, (4R)-4-amino-1-[4-[4-[6-chloro-4-[difluoro-[(3R)-3-piperidyl]methyl]-2-pyridyl]piperazin-1-yl]sulfonylphenyl]pyrrolidin-2-one] | 2.85 (≈ 5.01 µM) | 5.7 (≈ 10 µM) | 19.3
2 | O=C1CC(N2CC3(CNC3)C2)CN1c1ccc(S(=O)(=O)N2CCN(c3cc(C(F)(F)F)cc(Cl)n3)CC2)cc1 (stereo not drawn) [Example 52, 1-[4-[4-[6-Chloro-4-(trifluoromethyl)-2-pyridyl]piperazin-1-yl]sulfonylphenyl]-4-(2,6-diazaspiro[3.3]heptan-2-yl)pyrrolidin-2-one] | 17.5 (≈ 29.9 µM) | 17.5 (≈ 29.9 µM) | 34.2
3 | NC1CC(=O)N(c2ccc(S(=O)(=O)N3CCN(c4cc(S(=O)(=O)C5CC5)cc(Cl)n4)CC3)cc2)C1 (stereo not drawn) [Example 69, 4-Amino-1-[4-[4-(6-chloro-4-cyclopropylsulfonyl-2-pyridyl)piperazin-1-yl]sulfonylphenyl]pyrrolidin-2-one] | 13.5 (≈ 25 µM) | 6.75 (≈ 12.5 µM) | 746
4 | O=C1CC(N2CCN[C@H](CO)C2)CN1c1ccc(S(=O)(=O)N2CCN(c3cc(C(F)(F)F)cc(Cl)n3)CC2)cc1 (stereo partly drawn) [Example 53, 1-[4-[4-[6-Chloro-4-(trifluoromethyl)-2-pyridyl]piperazin-1-yl]sulfonylphenyl]-4-[(3S)-3-(hydroxymethyl)piperazin-1-yl]pyrrolidin-2-one] | 2 (≈ 3.32 µM) | 3 (≈ 4.97 µM) | 6.63
5 | CNCCN1CCC[C@H]2OC(=O)N(c3ccc(S(=O)(=O)N4CCN(c5cc(C(F)(F)F)cc(Cl)n5)CC4)cc3)[C@H]2C1 [Example 26, (3aS,8aR)-3-[4-[4-[6-chloro-4-(trifluoromethyl)-2-pyridyl]piperazin-1-yl]sulfonylphenyl]-5-[2-(methylamino)ethyl]-3a,4,6,7,8,8a-hexahydrooxazolo[4,5-c]azepin-2-one] | 2.64 (≈ 4.28 µM) | 5.28 (≈ 8.56 µM) | 32.4
6 | NCC1CN(C2CC(=O)N(c3ccc(S(=O)(=O)N4CCN(c5cc(C(F)(F)F)cc(Cl)n5)CC4)cc3)C2)C1 (stereo not drawn) [Example 49, 4-[3-(Aminomethyl)azetidin-1-yl]-1-[4-[4-[6-chloro-4-(trifluoromethyl)-2-pyridyl]piperazin-1-yl]sulfonylphenyl]pyrrolidin-2-one] | 3.87 (≈ 6.75 µM) | 7.74 (≈ 13.5 µM) | 82
7 | O=C1CC(N2CCN[C@@H](CO)C2)CN1c1ccc(S(=O)(=O)N2CCN(c3cc(C(F)(F)F)cc(Cl)n3)CC2)cc1 (stereo partly drawn) [Example 54, 1-[4-[4-[6-Chloro-4-(trifluoromethyl)-2-pyridyl]piperazin-1-yl]sulfonylphenyl]-4-[(3R)-3-(hydroxymethyl)piperazin-1-yl]pyrrolidin-2-one] | 2 (≈ 3.32 µM) | 4 (≈ 6.63 µM) | 19.9
8 | N[C@@H]1CC(=O)N(c2ccc(S(=O)(=O)N3CCN(c4cc(C(F)(F)[C@H]5CCCNC5)cc(Cl)n4)CC3)cc2)C1 [Example 108, (4R)-4-amino-1-[4-[4-[6-chloro-4-[difluoro-[(3S)-3-piperidyl]methyl]-2-pyridyl]piperazin-1-yl]sulfonylphenyl]pyrrolidin-2-one] | 4.98 (≈ 8.75 µM) | 4.98 (≈ 8.75 µM) | 35.1
9 | O=C1OC(CNC2CCNC2)CN1c1ccc(S(=O)(=O)N2CCN(c3cc(C(F)(F)F)cc(Cl)n3)CC2)cc1 (stereo not drawn) [Example 34, 3-[4-[4-[6-Chloro-4-(trifluoromethyl)-2-pyridyl]piperazin-1-yl]sulfonylphenyl]-5-[(pyrrolidin-3-ylamino)methyl]oxazolidin-2-one] | 4.39 (≈ 7.45 µM) | 4.39 (≈ 7.45 µM) | 27.2
10 | NC1CC(=O)N(c2ccc(S(=O)(=O)N3CCN(c4cc(C(F)(F)c5cncnc5)cc(Cl)n4)CC3)cc2)C1 (stereo not drawn) [Example 92, 4-Amino-1-[4-[4-[6-chloro-4-[difluoro(pyrimidin-5-yl)methyl]-2-pyridyl]piperazin-1-yl]sulfonylphenyl]pyrrolidin-2-one] | 2.12 (≈ 3.76 µM) | 4.24 (≈ 7.52 µM) | 95.7
11 | O=C1OC(CN2C[C@@H](O)[C@@H](O)C2)CN1c1ccc(S(=O)(=O)N2CCN(c3cc(C(F)(F)F)cc(Cl)n3)CC2)cc1 (stereo partly drawn) [Example 30, 3-[4-[4-[6-Chloro-4-(trifluoromethyl)-2-pyridyl]piperazin-1-yl]sulfonylphenyl]-5-[[cis-3,4-dihydroxypyrrolidin-1-yl]methyl]oxazolidin-2-one] | 2.01 (≈ 3.32 µM) | 4.02 (≈ 6.63 µM) | 14.9
12 | CNC1CN(CC2CC(=O)N(c3ccc(S(=O)(=O)N4CCN(c5cc(C(F)(F)F)cc(Cl)n5)CC4)cc3)C2)C1 (stereo not drawn) [Example 43, 1-[4-[4-[6-Chloro-4-(trifluoromethyl)-2-pyridyl]piperazin-1-yl]sulfonylphenyl]-4-[[3-(methylamino)azetidin-1-yl]methyl]pyrrolidin-2-one] | 3.82 (≈ 6.51 µM) | 5.09 (≈ 8.67 µM) | 15.3
13 | Cc1cc(C(F)(F)c2ccccc2)nc(N2CCN(S(=O)(=O)c3ccc(N4CC(N)CC4=O)cc3)CC2)n1 (stereo not drawn) [Example 76, 4-Amino-1-[4-[4-[4-[difluoro(phenyl)methyl]-6-methyl-pyrimidin-2-yl]piperazin-1-yl]sulfonylphenyl]pyrrolidin-2-one] | 0.51 (≈ 0.94 µM) | 1.03 (≈ 1.9 µM) | 27.6
14 | N[C@@H]1CC(=O)N(c2ccc(S(=O)(=O)N3CCN(c4cc(C(F)(F)[C@H]5CNCCO5)cc(Cl)n4)CC3)cc2)C1 [Example 105, (4R)-4-amino-1-[4-[4-[6-chloro-4-[difluoro-[(2R)-morpholin-2-yl]methyl]-2-pyridyl]piperazin-1-yl]sulfonylphenyl]pyrrolidin-2-one] | 1.79 (≈ 3.13 µM) | 1.79 (≈ 3.13 µM) | 5.25
15 | NCC1CN(c2ccc(S(=O)(=O)N3CCN(c4cc(C(F)(F)F)cc(Cl)n4)CC3)c(F)c2)C(=O)O1 (stereo not drawn) [Example 64, 5-(Aminomethyl)-3-[4-[4-[6-chloro-4-(trifluoromethyl)-2-pyridyl]piperazin-1-yl]sulfonyl-3-fluoro-phenyl]oxazolidin-2-one] | 3.65 (≈ 6.79 µM) | 14.6 (≈ 27.1 µM) | 264
16 | O=C1OC2C(O)C(CO)OC2N1c1ccc(S(=O)(=O)N2CCN(c3cc(C(F)(F)F)cc(Cl)n3)CC2)cc1 (stereo not drawn) [Example 21, 3-[4-[4-[6-Chloro-4-(trifluoromethyl)-2-pyridyl]piperazin-1-yl]sulfonylphenyl]-6-hydroxy-5-(hydroxymethyl)-3a,5,6,6a-tetrahydrofuro[2,3-d]oxazol-2-one] | 0.91 (≈ 1.57 µM) | 1.81 (≈ 3.13 µM) | 10.4
17 | CC(=O)NCC1CN(c2ccc(S(=O)(=O)N3CCN(c4cc(C(F)(F)F)cc(Cl)n4)CC3)cc2)C(=O)O1 (stereo not drawn) [Example 4, N-[[3-[4-[4-[6-chloro-4-(trifluoromethyl)-2-pyridyl]piperazin-1-yl]sulfonylphenyl]-2-oxo-oxazolidin-5-yl]methyl]acetamide] | 3.51 (≈ 6.25 µM) | 7.03 (≈ 12.5 µM) | 28.5
18 | NC1CC(=O)N(c2ccc(S(=O)(=O)N3CCN(c4cc(C(F)(F)C5COC5)cc(Cl)n4)CC3)cc2)C1 (stereo not drawn) [Example 97, 4-Amino-1-[4-[4-[6-chloro-4-[difluoro(oxetan-3-yl)methyl]-2-pyridyl]piperazin-1-yl]sulfonylphenyl]pyrrolidin-2-one] | 0.85 (≈ 1.57 µM) | 1.27 (≈ 2.34 µM) | 88.6
